Measured values published in US11466024B2, “Bicylic compound acting as an inhibitor” (CHIA TAI TIANQING PHARMACEUTICAL GROUP CO., LTD., priority 2017, dated 2022).
Like-named read-outs stand apart in the source and are kept apart here.

Assays:
[1] = Pharmacokinetic evaluation in mice after single IV and PO administration; type: in vivo; design: AUC(0-t) / AUC(0-inf): concentration or dose not given beside the values; details: Balb/c mice, plasma; for MRT inf: read-out: MRT0-inf; for MRT last: read-out: MRT0-last
Protocol: Balb/c mice (female, 15 to 30 g, 7- to 9-week old, Shanghai Lingchang) were used to test in vivo pharmacokinetics of compounds. The experimental method was as follows.
The pharmacokinetic characteristics of the compounds were tested by standard protocols after the compounds were administered to rodents by intravenous injection and oral administration. In the experiment, candidate compounds were formulated into clear solutions and administered to mice by a single intravenous injection and a single oral administration. The vehicle for intravenous injection (IV) was a mixed solvent of 5% of DMSO and 95% of 10% Cremophor EL, and the vehicle for oral administration (PO) was a mixed solvent of 1% tween 80, 9% PEG400 and 90% water. Whole blood samples within 48 hours were collected, and centrifuged at 3000 g at 4° C. for 15 minutes. The supernatant was separated to obtain the plasma sample, to which an acetonitrile solution containing an internal standard was added to precipitate the proteins, and the volume of the acetonitrile solution was 20 times that of the plasma sample. The supernatant was obtained by centrifugation, an equal volume of water was added thereto, and the mixture was centrifuged again to get the supernatant for sample injection. Plasma concentrations were quantitatively analyzed by an LC-MS/MS analytical method, and pharmacokinetic parameters, such as peak concentration, peak time, clearance rate, half-life, area under the concentration-time curve, and bioavailability, were calculated.
Of these, “10% Cremophor EL” referred to a deionized aqueous solution of Cremophor EL with a volume concentration of 10%. For example, taking the formulation of a 100 ml solution as an example, 10 ml Cremophor EL was taken and deionized water was added thereto, the mixture was well stirred, and then deionized water was added until the total volume was 100 ml. “Mixed solvent of 5% of DMSO and 95% of 10% Cremophor EL” referred to a mixed solvent comprised of DMSO and 10% Cremophor EL, in which […], and 10% Cremophor EL accounted for 95% of the volume of the mixed solvent. “Mixed solvent of 1% tween 80, 9% PEG400 and 90% water” meant that the volumes of tween 80, PEG400 and water accounted for 1%, 9% and 90% of the volume of the mixed solvent, respectively.

[2] = tested on: MOG35-55-induced experimental autoimmune encephalomyelitis (EAE); assay: In vivo pharmacodynamic research on MOG35-55-induced experimental autoimmune encephalomyelitis (EAE) in mice; details: G4, 75 mg/kg p.o. b.i.d
Protocol: The day of immunization was recorded as day 0, and the subsequent days were marked sequentially. Mice were anesthetized with isoflurane, and 100 μl of the emulsion was administered via subcutaneous injection at three sites (the middle part between shoulder and back, and two sides of the tail that were close to the groin), namely, 33 μl of the emulsion for each site. 0 hour and 48 hours after the injection of the emulsion, 200 ng (i.e. 200 μl) of the PTX solution was intraperitoneal injected. Mice in the normal group were not required to be immunized.
After the immunization on day 0, the immunized mice were randomly divided into 3 groups with 10 mice in each group according to the body weights except for the mice in the normal group, the details were shown in Table 1. FTY720 served as a positive drug, and a dose of […] was an effective dose commonly used in the EAE model.
The first group was normal mice without any treatment; vehicle was administered to the second group; FTY720 was administered to the third group at a dose of 0.5 mg/kg once a day; and the compound of Example 1 was administered to the fourth group at a dose of 75 mg/kg twice a day. The administration lasted for 25 days in total. The volume of intragastric administration was 10 ml/kg.
The day when animals were immunized was day 0. Animal body weights were recorded three times a week from day 0 to day 10, and the body weights and clinical scores of the animals were closely observed and recorded daily from day 11.
The experimental data was expressed as mean±standard error of mean (Mean±SEM).
The area under the curve of clinical scores over time (i.e. “AUC of clinical scores” or “area under the curve of clinical scores”) was calculated by analyzing the curve of clinical scores for each animal in each group, and the inhibition rates of the remaining groups (G1, G3, and G4) relative to G2 (solvent control group) were calculated by the mean AUC of clinical scores among groups.

Question: With `CCS(=O)(=O)c1ccc(CNC(=O)c2cc3c(s2)C(C(C)C)N(C[C@H]2CC[C@H](C(F)(F)F)CC2)C3)nc1` (single isomer, unassigned) [Example 1] as the compound, how does the AUCExtra ([1]; IV) read?
Answer: 6.28%

Question: And the AUMCExtra ([1]; IV)?
Answer: 27.8%

Question: What about the Tlast ([1]; IV) of the same compound?
Answer: 24.0 h

Question: What about the AUCExtra ([1]; PO) of the same compound?
Answer: 12.1%

Question: What about the AUMCExtra ([1]; PO) of the same compound?
Answer: 41.3%

Question: What about the Tlast ([1]; PO) of the same compound?
Answer: 24.0 h

Question: And the AUC(0-inf) ([1]; female, mouse, IV)?
Answer: 3.92 µM·h

Question: And the AUC(0-t) ([1]; female, mouse, IV)?
Answer: 3.67 µM·h

Question: What about the C0 ([1]; female, mouse, IV) of the same compound?
Answer: 955 nM

Question: And the clearance ([1]; female, mouse, IV)?
Answer: 7.62 mL/min/kg

Question: What about the half-life ([1]; female, mouse, IV) of the same compound?
Answer: 6.84 h

Question: And the MRT inf ([1]; female, mouse, IV)?
Answer: 7.66 h

Question: What about the MRT last ([1]; female, mouse, IV) of the same compound?
Answer: 5.91 h

Question: What about the Vd ([1]; female, mouse, IV, read-out: Vdss) of the same compound?
Answer: 3.5 L/kg

Question: What about the AUC(0-inf) ([1]; female, mouse, PO) of the same compound?
Answer: 35.1 µM·h

Question: What about the AUC(0-t) ([1]; female, mouse, PO) of the same compound?
Answer: 30.9 µM·h

Question: What about the Cmax ([1]; female, mouse, PO) of the same compound?
Answer: 3520 nM

Question: What about the Tmax ([1]; female, mouse, PO) of the same compound?
Answer: 1 h

Question: What about the bioavailability ([1]; female, mouse, PO) of the same compound?
Answer: 89.7%

Question: What about the half-life ([1]; female, mouse, PO) of the same compound?
Answer: 8.7 h

Question: What about the MRT inf ([1]; female, mouse, PO) of the same compound?
Answer: 10.8 h

Question: What about the MRT last ([1]; female, mouse, PO) of the same compound?
Answer: 7.19 h

Question: And the “clinical scores of EAE mice” value ([2]; 25 days, FIG. 1)?
Answer: significantly reduced

Question: What about the “inhibition rate of AUC of clinical scores relative to solvent control group” value ([2]; 25 days, p<0.0001, FIG. 2) of the same compound?
Answer: 93.2%

Question: What about the “morbidity of EAE” value ([2]; at day 19, stable till the end of the experiment, FIG. 3) of the same compound?
Answer: 20%

Question: What about the “body weights compared among groups” value ([2]; from the beginning to end, FIG. 4) of the same compound?
Answer: the highest

Question: And the body weight changes ([2]; significantly different from solvent control group, FIG. 4)?
Answer: kept increasing
